Results as given in patent publication US3983105A, “Penicillins” (Bayer Aktiengesellschaft, priority 1971, dated 1976).
Read-outs that look alike come from different tables or passages of the source. One block for each compound: values may come before it.

Tests used:
[1] = tested on: Proteus rettgeri; experiment: MIC, test tube serial dilution, Proteus rettgeri; assay type: cell-based
[2] = tested on: Providencia; experiment: MIC, test tube serial dilution, Providencia; assay type: cell-based
[3] = tested on: Proteus vulgaris; experiment: MIC, test tube serial dilution, Proteus vulgaris; assay type: cell-based
[4] = tested on: Klebsiella-Aerobacter; experiment: MIC, test tube serial dilution, Klebsiella-Aerobacter; assay type: cell-based
[5] = tested on: Streptococcus faecalis; experiment: MIC, test tube serial dilution, Streptococcus faecalis; assay type: cell-based
[6] = tested on: Staphylococcus aureus; experiment: MIC, test tube serial dilution, Staphylococcus aureus; assay type: cell-based
[7] = tested on: Escherichia coli; experiment: MIC, test tube serial dilution, Escherichia coli; assay type: cell-based
[8] = tested on: Proteus mirabilis; experiment: MIC, test tube serial dilution, Proteus mirabilis; assay type: cell-based
[9] = tested on: Serratia marcescens; experiment: MIC, test tube serial dilution, Serratia marcescens; assay type: cell-based
[10] = tested on: Proteus morganii; experiment: MIC, test tube serial dilution, Proteus morganii; assay type: cell-based
[11] = tested on: Haemophilus influenzae; experiment: MIC, test tube serial dilution, Haemophilus influenzae; assay type: cell-based
[12] = tested on: Pseudomonas aeruginosa; experiment: MIC, test tube serial dilution, Pseudomonas aeruginosa; assay type: cell-based
[13] = tested on: Klebsiella-Aerobacter; details: in vivo; cited from earlier work

Structure (SMILES): CC1(C)S[C@@H]2[C@H](NC(=O)[C@H](NC(=O)N3CCN(S(C)(=O)=O)C3=O)c3ccccc3)C(=O)N2[C@H]1C(=O)O [Example 4, Sodium D(-)-α-[(3-methylsulphonyl-imidazolidin-2-on-1-yl)-carbonylamino]-benzylpencillin]
- MIC ([1]; Sp.): 0.8 U/ml
- MIC ([1]; strain 1 050): > 400 U/ml
- MIC ([1]; strain 824): > 400 U/ml
- MIC ([2]; strain 930): < 0.8 U/ml
- MIC ([2]; strain 933): 12.5 U/ml
- MIC ([2]; strain 945): < 0.8 U/ml
- MIC ([3]; strain 3 400): 6 U/ml
- MIC ([3]; strain 1017, 24 hours, 37°C): 1.6 U/ml
- MIC [4]: < 0.8 U/ml
- MIC ([4]; aerogenes 418): 3 U/ml
- MIC ([4]; strain 62): 1.6 U/ml
- MIC ([4]; strain 63, 24 hours, 37°C): 4 - 16 U/ml
- MIC ([4]; strain 69): 1.6 U/ml
- MIC ([4]; strain 70): 3 U/ml
- MIC ([4]; strain 75): 6 U/ml
- MIC ([4]; strain 1852): > 400 U/ml
- MIC ([4]; strain 1871): 6 U/ml
- MIC ([4]; strain K 10, 24 hours, 37°C): 4 - 16 U/ml
- MIC ([5]; ATCC 9790, 24 hours, 37°C): 16-32 U/ml
- MIC ([5]; strain 8 698): 1.6 U/ml
- MIC ([5]; strain 8 709): 12.5 U/ml
- MIC ([5]; strain 8 711): 3 U/ml
- MIC [6]: 200 U/ml
- MIC ([6]; strain 1756 (BRL 1 756), 24 hours, 37°C): 64-256 U/ml
- MIC ([6]; strain P 209): < 0.8 U/ml
- MIC ([6]; strain SG 511): < 0.8 U/ml
- MIC ([7]; strain 26/6): < 0.8 U/ml
- MIC ([7]; strain 55 B 5): < 0.8 U/ml
- MIC ([7]; strain 183/58, 24 hours, 37°C): 1 - 4 U/ml
- MIC ([7]; strain 1465): > 400 U/ml
- MIC ([7]; strain A 261, 24 hours, 37°C): 32 - 64 U/ml
- MIC ([7]; strain B): < 0.8 U/ml
- MIC ([7]; strain B 94): < 0.8 U/ml
- MIC ([7]; strain C 165, 24 hours, 37°C): 1 - 4 U/ml
- MIC ([7]; strain N): 1.6 U/ml
- MIC ([7]; strain S): 32 U/ml
- MIC ([7]; strain T 7): > 400 U/ml
- MIC ([7]; strain T 20/2): > 400 U/ml
- MIC ([8]; Sp.): 1.6 U/ml
- MIC ([8]; strain 1 235): 1.6 U/ml
- MIC ([8]; strain 605): 3 U/ml
- MIC ([8]; strain G.): < 0.4 U/ml
- MIC ([9]; strain 2): 1.6 U/ml
- MIC ([9]; strain 3): 12.5 U/ml
- MIC ([9]; strain 4): 1.6 U/ml
- MIC ([9]; strain 6): 1.6 U/ml
- MIC ([9]; strain 7): 1.6 U/ml
- MIC ([9]; strain 9): < 0.8 U/ml
- MIC ([9]; strain 13): < 0.8 U/ml
- MIC ([9]; strain K): < 0.8 U/ml
- MIC ([10]; Sp.): 3 U/ml
- MIC ([10]; strain 1 102): 200 U/ml
- MIC ([11]; strain 2 684): 0.1 U/ml
- MIC ([11]; strain 2 689): 0.25 U/ml
- MIC ([11]; strain 2 718): 0.1 U/ml
- MIC ([11]; strain 2 786): 0.06 U/ml
- MIC ([11]; strain 2 788): 0.5 U/ml
- MIC ([12]; strain A): 12.5 U/ml
- MIC ([12]; strain Bonn, 24 hours, 37°C): 16 - 32 U/ml
- MIC ([12]; strain E 27 500): 12.5 U/ml
- MIC ([12]; strain V 10 797): 12.5 U/ml
- MIC ([12]; strain V 10 818): 25 U/ml
- MIC ([12]; strain V 10 887): 12.5 U/ml
- MIC ([12]; strain V 10 900): 12.5 U/ml
- MIC ([12]; strain Walter, 24 hours, 37°C): 4-16 U/ml

Structure (SMILES): CC1(C)S[C@@H]2[C@H](NC(=O)[C@H](N)c3ccccc3)C(=O)N2[C@H]1C(=O)O [Ampicillin, α-aminobenzylpenicillin, reference compound]
- effectiveness against infections [13]: not able to combat infections
- MIC ([3]; Table 3, strain 1017): 400 U/ml
- MIC ([3]; strain 1017, 24 hours, 37°C): 400 U/ml
- MIC ([4]; Table 3, strain 63): 100-200 U/ml
- MIC ([4]; Table 3, strain K 10): 100-200 U/ml
- MIC ([6]; Table 3, strain 133): < 1 U/ml
- MIC ([7]; Table 3, strain 183/58): 200 U/ml
- MIC ([7]; Table 3, strain A 261): > 400 U/ml
- MIC ([7]; Table 3, strain C 165): 6 U/ml
- MIC ([7]; strain 183/58, 24 hours, 37°C): 200 U/ml
- MIC ([7]; strain A 261, 24 hours, 37°C): > 400 U/ml
- MIC ([12]; Table 3, strain Walter): 200 U/ml
- MIC ([12]; strain Bonn, 24 hours, 37°C): 200 U/ml
- MIC ([12]; strain Walter, 24 hours, 37°C): 200 U/ml

- MIC ([1]; Sp.): 1.6 U/ml
- MIC ([1]; strain 1 050): > 400 U/ml
- MIC ([1]; strain 824): > 400 U/ml
- MIC ([2]; strain 930): 6 U/ml
- MIC ([3]; strain 3 400): 50 U/ml
- MIC ([4]; aerogenes 418): 400 U/ml
- MIC ([4]; strain 60): 100 U/ml
- MIC ([4]; strain 62): 100 U/ml
- MIC ([4]; strain 63, 24 hours, 37°C): 400 U/ml
- MIC ([4]; strain 69): > 400 U/ml
- MIC ([4]; strain 70): 400 U/ml
- MIC ([4]; strain 75): > 400 U/ml
- MIC ([4]; strain 1852): > 400 U/ml
- MIC ([4]; strain 1871): 400 U/ml
- MIC ([4]; strain K 10, 24 hours, 37°C): > 400 U/ml
- MIC ([5]; strain 8 698): 100 U/ml
- MIC ([5]; strain 8 709): 200 U/ml
- MIC ([5]; strain 8 711): 50 U/ml
- MIC ([6]; strain P 209): < 0.8 U/ml
- MIC ([6]; strain SG 511): < 0.8 U/ml
- MIC ([7]; strain 14, 24 hours, 37°C): 1.6 U/ml
- MIC ([7]; strain 1465): > 400 U/ml
- MIC ([7]; strain A 261, 24 hours, 37°C): 400 U/ml
- MIC ([7]; strain B 94): 1.6 U/ml
- MIC ([7]; strain N): 6 U/ml
- MIC ([7]; strain S): 400 U/ml
- MIC ([7]; strain T 7): > 400 U/ml
- MIC ([7]; strain T 20/2): > 400 U/ml
- MIC ([8]; Sp.): 1.6 U/ml
- MIC ([8]; strain 605): 400 U/ml
- MIC ([8]; strain G.): 1.6 U/ml
- MIC ([9]; strain 3): 400 U/ml
- MIC ([9]; strain 7): 100 U/ml
- MIC ([9]; strain 9): 6 U/ml
- MIC ([9]; strain 13): 6 U/ml
- MIC ([9]; strain K): 6 U/ml
- MIC ([10]; strain 1 102): > 800 U/ml
- MIC ([10]; strain 932, 24 hours, 37°C): 6 U/ml
- MIC ([11]; strain 2 689): 1.6 U/ml
- MIC ([11]; strain 2 718): 0.8 U/ml
- MIC ([11]; strain 2 786): 1.6 U/ml
- MIC ([11]; strain 2 788): < 0.4 U/ml
- MIC ([12]; strain A): 25 U/ml
- MIC ([12]; strain Bonn, 24 hours, 37°C): 200 U/ml
- MIC ([12]; strain E 27 500): 100 U/ml
- MIC ([12]; strain F 41, 24 hours, 37°C): 100 U/ml
- MIC ([12]; strain V 10 797): 50 U/ml
- MIC ([12]; strain V 10 818): 100 U/ml
- MIC ([12]; strain V 10 887): 100 U/ml
- MIC ([12]; strain V 10 900): 50 U/ml
- MIC ([12]; strain Walter, 24 hours, 37°C): 100 U/ml
Structure (SMILES): CC1(C)S[C@@H]2[C@H](NC(=O)C(C(=O)O)c3ccccc3)C(=O)N2[C@H]1C(=O)O (stereo partly drawn) [Carbenicillin, reference compound]
- effectiveness against infections [13]: only effective in man in the case of infections caused by Klebsiella-Aerobacter if administered in a continuous high dosage

Structure (SMILES): CC1(C)S[C@@H]2[C@H](NC(=O)C(NC(=O)N3CCN(S(C)(=O)=O)C3=O)c3cccs3)C(=O)N2[C@H]1C(=O)O (stereo partly drawn) [Penicillin No. 3 (Table 3), Sodium D,L-α-[(3-methylsulphonyl-imidazolidin-2-on-1-yl)-carbonylamino]-α-thienyl-(2)-mthylpenicillin]
- MIC ([3]; Table 3, strain 1017): 4 U/ml
- MIC ([4]; Table 3, strain 63): 256 U/ml
- MIC ([4]; Table 3, strain K 10): 16 U/ml
- MIC ([5]; unit assumed): 32 µg/mL
- MIC ([6]; Table 3, strain 133): < 1 U/ml
- MIC ([6]; Table 3, strain 1756E): 128 U/ml
- MIC ([7]; Table 3, strain 14): < 1 U/ml
- MIC ([7]; Table 3, strain 183/58): 4 U/ml
- MIC ([7]; Table 3, strain A 261): 256 U/ml
- MIC ([7]; Table 3, strain C 165): 4 U/ml
- MIC ([10]; Table 3, strain 932): 16 U/ml
- MIC ([12]; Table 3, strain F 41): 64 U/ml
- MIC ([12]; Table 3, strain Walter): 64 U/ml
